Test results taken from patent publication US11884682B2, “Compounds and their uses as MIF inhibitors” (NANJING IMMUNOPHAGE BIOTECH CO., LTD., priority 2020, dated 2024).

target: MIF (Homo sapiens (Human), UniProt P14174); assay: MIF tautomerase assay using pHPP as substrate; format: biochemical; conditions: cell-free, pHPP substrate 1.5 mM, MIF 3 nM; mean pIC50 of multiple test results
Method: Tautomerase Assay Using pHPP as substrate
This assay measured MIF's tautomerase activity in a cell-free system and was based on the determination of initial rates of the MIF-catalyzed conversion of the ketonic into the enolic tautomer of pHPP. This was achieved by spectrophotometric quantification of the complex between borate and the product of the reaction (enolic pHPP). The substrate was prepared by conversion of the enolic pHPP into its ketonic form. To achieve this, 0.5 M pHPP in methanol was diluted 10-fold with 50 mM sodium acetate buffer at pH 6.0, and then the suspension was shaken for 24 h at room temperature in darkness, and finally stored at 4° C. for not more than 1 week, with 5 min sonication being recommended before use.
Assays were performed in small-volume clear-bottom black 96 or 384-well polystyrene plates (Greiner Bio-One). First, 2 μL of the enzyme solution containing 6 nM of MIF in DPBS, 0.025% w/v BSA, and 300 μM CHAPS was dispensed onto sample and negative control wells using Multidrop Combi with metallic tip cassettes (Thermo Fisher Scientific) previously treated with Sigmacote. Then, 2 μL of the same buffer without MIF was dispensed onto positive control wells. The reaction was started by addition of the following to all wells: 2 μL of substrate solution containing 3 mM ketonic pHPP in 200 mM boric acid, 25 mM sodium phosphate, 0.025% w/v BSA, and 300 μM CHAPS at pH 6.0. In order to remove bubbles, the plate was centrifuged in an Allegra 25R centrifuge (Beckman Coulter, Inc., Brea, CA) at 1000 rpm for 2 min at room temperature. Then, the plate was read in an EnVision. Final concentrations of enzyme and substrate were 3 nM and 1.5 mM, respectively. Initial rates were calculated for each well as the slope of the absorbance progress curve.
The data mentioned below represents a mean pIC50 value of multiple test results. It is understood that the data illustrated below may have reasonable variation depending on the specific conditions and procedures used by the person conducting the testing.

Sequence of MIF (P14174 2-115): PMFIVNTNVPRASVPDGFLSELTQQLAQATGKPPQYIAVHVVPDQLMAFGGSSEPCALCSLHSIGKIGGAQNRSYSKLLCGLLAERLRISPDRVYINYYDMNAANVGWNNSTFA

SMILES	Tautomerase Inhibition pIC50
COc1cc(N2CC3CC(C2)O3)ccc1C(=O)Nc1nnc(-c2cccs2)o1 [Compound 33, 4-(6-oxa-3-azabicyclo[3.1.1]heptan-3-yl)-2-methoxy-N-(5-(thiophen-2-yl)-1,3,4-oxadiazol-2-yl)benzamide]	7.29
COc1cc(N2CC3CC(C2)O3)ccc1C(=O)NCc1nnc(-c2cccs2)o1 [Compound 57, 4-(6-oxa-3-azabicyclo[3.1.1]heptan-3-yl)-2-methoxy-N-((5-(thiophen-2-yl)-1,3,4-oxadiazol-2-yl)methyl)benzamide]	6.29
CCOc1ccccc1C(=O)Nc1nnc(-c2cccs2)o1 [Compound 10, 2-ethoxy-N-(5-(thiophen-2-yl)-1,3,4-oxadiazol-2-yl)benzamide]	5.90
COc1ccc(C(=O)Nc2nnc(-c3sccc3F)o2)c(OC)c1 [Compound 8, N-(5-(3-fluorothiophen-2-yl)-1,3,4-oxadiazol-2-yl)-2,4-dimethoxybenzamide]	6.54
O=C(Cc1ccccc1)Nc1nnc(-c2cccs2)o1 [Compound 13, 2-phenyl-N-(5-(thiophen-2-yl)-1,3,4-oxadiazol-2-yl)acetamide]	<5
COC(=O)c1ccccc1C(=O)Nc1nnc(-c2cccs2)o1 [Compound 12, methyl 2-((5-(thiophen-2-yl)-1,3,4-oxadiazol-2-yl)carbamoyl)benzoate]	<5
O=C(Nc1nnc(-c2ccco2)o1)[C@H]1CCN(Cc2ccccc2)C1 [Compound 3, (S)-1-benzyl-N-(5-(furan-2-yl)-1,3,4-oxadiazol-2-yl)pyrrolidine-3-carboxamide]	<5
COc1ccc(C(=O)Nc2nnc(-c3ccc(O)cc3)o2)c(OC)c1 [Compound 4, N-(5-(4-hydroxyphenyl)-1,3,4-oxadiazol-2-yl)-2,4-dimethoxybenzamide]	5.58
COc1ccc(C(=O)Nc2nnc(-c3ccsc3)o2)c(OC)c1 [Compound 5, 2,4-dimethoxy-N-(5-(thiophen-3-yl)-1,3,4-oxadiazol-2-yl)benzamide]	7.73
COc1ccc(C(=O)Nc2nnc(-c3ccccc3)o2)c(OC)c1 [Compound 2, 2,4-dimethoxy-N-(5-phenyl-1,3,4-oxadiazol-2-yl)benzamide]	5.07
COc1cc(OCCOCc2ccccc2)ccc1C(=O)Nc1nnc(-c2cccs2)o1 [Compound 18, 4-(2-(benzyloxy)ethoxy)-2-methoxy-N-(5-(thiophen-2-yl)-1,3,4-oxadiazol-2-yl)benzamide]	7.63
COc1ccc(C(=O)Nc2nnc(-c3sccc3C)o2)c(OC)c1 [Compound 7, 2,4-dimethoxy-N-(5-(3-methylthiophen-2-yl)-1,3,4-oxadiazol-2-yl)benzamide]	<5

Second part, the compound after the results:

Tautomerase Inhibition pIC50	SMILES
3.10	O=C(NCc1nnc(-c2cccs2)o1)c1ccccc1O [Compound 42, 2-hydroxy-N-((5-(thiophen-2-yl)-1,3,4-oxadiazol-2-yl)methyl)benzamide]
8.16	COc1cc(N2CCCC(C(=O)O)C2)ccc1C(=O)Nc1nnc(-c2cccs2)o1 (stereo not drawn) [Compound 31, 1-(3-methoxy-4-((5-(thiophen-2-yl)-1,3,4-oxadiazol-2-yl)carbamoyl)phenyl)piperidine-3-carboxylic Acid]
<5	COc1cc(N2CCOCC2)ccc1C(=O)NCc1nnc(-c2nccs2)o1 [Compound 62, 2-methoxy-4-morpholino-N-((5-(thiazol-2-yl)-1,3,4-oxadiazol-2-yl)methyl)benzamide]
<5	COc1cc(N2CCOCC2)ccc1C(=O)NC(C)(C)c1nnc(-c2cccs2)o1 [Compound 65, 2-methoxy-4-morpholino-N-(2-(5-(thiophen-2-yl)-1,3,4-oxadiazol-2-yl)propan-2-yl)benzamide]
<5	COc1cc(N2CCOCC2)ccc1C(=O)N(C)c1nnc(-c2cncs2)o1 [Compound 36, 2-methoxy-N-methyl-4-morpholino-N-(5-(thiazol-5-yl)-1,3,4-oxadiazol-2-yl)benzamide]
7.44	COc1cc(N2CCOCC2)ccc1C(=O)Nc1nnc(-c2cccs2)o1 [Compound 37, 2-methoxy-4-morpholino-N-(5-(thiophen-2-yl)-1,3,4-oxadiazol-2-yl)benzamide]
3.23	COc1cc(N2CCOCC2)ccc1C(=O)N(C)C(C)(C)c1nnc(-c2cccs2)o1 [Compound 68, 2-methoxy-N-methyl-4-morpholino-N-(2-(5-(thiophen-2-yl)-1,3,4-oxadiazol-2-yl)propan-2-yl)benzamide]
<5	COc1c(C(=O)NCc2nnc(-c3cccs3)o2)cccc1N1CCOCC1 [Compound 54, 2-methoxy-3-morpholino-N-((5-(thiophen-2-yl)-1,3,4-oxadiazol-2-yl)methyl)benzamide]
6.21	COCCOc1ccc(C(=O)NCc2nnc(-c3cccs3)o2)c(OC)c1 [Compound 71, 2-methoxy-4-(2-methoxyethoxy)-N-((5-(thiophen-2-yl)-1,3,4-oxadiazol-2-yl)methyl)benzamide]
<5	COc1ncccc1C(=O)NCc1nnc(-c2cccs2)o1 [Compound 48, 2-methoxy-N-((5-(thiophen-2-yl)-1,3,4-oxadiazol-2-yl)methyl)nicotinamide]
1.77	O=C(NCc1nnc(-c2cccs2)o1)c1ccccc1OC(F)(F)F [Compound 41, N-((5-(thiophen-2-yl)-1,3,4-oxadiazol-2-yl)methyl)-2-(trifluoromethoxy)benzamide]
7.90	COc1cc(N2CCCC2C(=O)O)ccc1C(=O)Nc1nnc(-c2cccs2)o1 (stereo not drawn) [Compound 30, (3-methoxy-4-((5-(thiophen-2-yl)-1,3,4-oxadiazol-2-yl)carbamoyl)phenyl)proline]
<5	CCN(Cc1nnc(-c2cccs2)o1)C(=O)c1ccc(N2CCOCC2)cc1OC [Compound 53, N-ethyl-2-methoxy-4-morpholino-N-((5-(thiophen-2-yl)-1,3,4-oxadiazol-2-yl)methyl)benzamide]
<5	COc1cc(N2CCOCC2)ccc1C(=O)NC1(c2nnc(-c3cccs3)o2)CC1 [Compound 66, 2-methoxy-4-morpholino-N-(1-(5-(thiophen-2-yl)-1,3,4-oxadiazol-2-yl)cyclopropyl)benzamide]
<5	O=C(NCc1nnc(-c2cccs2)o1)C1CCCCC1 [Compound 49, N-((5-(thiophen-2-yl)-1,3,4-oxadiazol-2-yl)methyl)cyclohexanecarboxamide]
<5	O=C(NCc1nnc(-c2cccs2)o1)c1c(F)cccc1F [Compound 45, 2,6-difluoro-N-((5-(thiophen-2-yl)-1,3,4-oxadiazol-2-yl)methyl)benzamide]
6.22	COc1cc(N2CC(C)OC(C)C2)ccc1C(=O)NCc1nnc(-c2cccs2)o1 (stereo not drawn) [Compound 55, 4-(2,6-dimethylmorpholino)-2-methoxy-N-((5-(thiophen-2-yl)-1,3,4-oxadiazol-2-yl)methyl)benzamide]
4.79	COc1cc(N2CCOCC2)ccc1C(=O)NCc1nnc(-c2ccc(Cl)s2)o1 [Compound 64, N-((5-(5-chlorothiophen-2-yl)-1,3,4-oxadiazol-2-yl)methyl)-2-methoxy-4-morpholinobenzamide]
